From patent publication US5688913A, “CS-1 peptidomimetics, compositions and methods of using the same” (Cytel Corporation, priority 1995, dated 1997)
Read-outs that look alike come from different tables or passages of the source. Numbered stars: 1 amine (or outer) side, 2 acyl side, 3 side chain; on linkers, the order of the positions; unused ones are H or OH. Square brackets hold non-standard residues; d marks the D form. Peptide text beside a SMILES is read from it. * marks the point of attachment. X20 = O=C(CCCCCO[C@@H]1O[C@H](CO)[C@@H](O)[C@H](O)[C@H]1N[*:1])[*:2]; Phe(4-NO2) = N[C@@H](Cc1ccc([N+](=O)[O-])cc1)C(=O)O; Biotin = O=C1N[C@H]2[C@H](CS[C@H]2CCCCC(=O)*)N1; hPhe = N[C@@H](CCc1ccccc1)C(=O)O; Cha = N[C@@H](CC1CCCCC1)C(=O)O; Phg = N[C@H](C(=O)O)c1ccccc1; Piperidide = C1CCN(*)CC1; PhAc = O=C(Cc1ccccc1)*; Bz = O=C(c1ccccc1)*; Ahx = NCCCCCC(=O)O

Biological target: VLA-4 (Homo sapiens, UniProt P05556+P13612)
Sequence (P13612 34-1032): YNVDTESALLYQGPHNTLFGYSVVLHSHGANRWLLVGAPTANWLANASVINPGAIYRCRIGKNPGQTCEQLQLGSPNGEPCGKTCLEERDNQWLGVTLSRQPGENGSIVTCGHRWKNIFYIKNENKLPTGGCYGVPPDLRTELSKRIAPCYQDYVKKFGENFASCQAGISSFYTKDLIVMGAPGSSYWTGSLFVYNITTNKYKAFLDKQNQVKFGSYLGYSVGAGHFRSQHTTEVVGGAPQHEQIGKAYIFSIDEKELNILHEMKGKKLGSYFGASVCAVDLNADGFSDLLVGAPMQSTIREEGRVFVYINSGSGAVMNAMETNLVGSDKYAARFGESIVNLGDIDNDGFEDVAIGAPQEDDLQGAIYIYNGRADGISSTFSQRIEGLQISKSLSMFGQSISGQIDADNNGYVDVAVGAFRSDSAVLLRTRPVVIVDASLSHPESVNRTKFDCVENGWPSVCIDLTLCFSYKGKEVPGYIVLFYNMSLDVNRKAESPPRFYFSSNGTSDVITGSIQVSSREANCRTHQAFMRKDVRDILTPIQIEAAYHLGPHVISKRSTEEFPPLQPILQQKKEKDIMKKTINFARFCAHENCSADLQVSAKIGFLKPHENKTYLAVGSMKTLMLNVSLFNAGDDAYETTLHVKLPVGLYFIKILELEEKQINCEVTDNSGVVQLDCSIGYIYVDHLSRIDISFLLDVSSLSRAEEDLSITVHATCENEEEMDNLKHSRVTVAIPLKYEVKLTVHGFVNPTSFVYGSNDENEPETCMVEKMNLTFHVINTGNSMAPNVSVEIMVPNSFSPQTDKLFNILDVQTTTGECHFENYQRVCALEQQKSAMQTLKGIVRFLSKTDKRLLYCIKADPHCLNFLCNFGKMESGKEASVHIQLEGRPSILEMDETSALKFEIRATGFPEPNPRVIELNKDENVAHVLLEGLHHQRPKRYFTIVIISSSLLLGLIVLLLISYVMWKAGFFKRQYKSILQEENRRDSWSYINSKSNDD
Sequence (P05556 21-798): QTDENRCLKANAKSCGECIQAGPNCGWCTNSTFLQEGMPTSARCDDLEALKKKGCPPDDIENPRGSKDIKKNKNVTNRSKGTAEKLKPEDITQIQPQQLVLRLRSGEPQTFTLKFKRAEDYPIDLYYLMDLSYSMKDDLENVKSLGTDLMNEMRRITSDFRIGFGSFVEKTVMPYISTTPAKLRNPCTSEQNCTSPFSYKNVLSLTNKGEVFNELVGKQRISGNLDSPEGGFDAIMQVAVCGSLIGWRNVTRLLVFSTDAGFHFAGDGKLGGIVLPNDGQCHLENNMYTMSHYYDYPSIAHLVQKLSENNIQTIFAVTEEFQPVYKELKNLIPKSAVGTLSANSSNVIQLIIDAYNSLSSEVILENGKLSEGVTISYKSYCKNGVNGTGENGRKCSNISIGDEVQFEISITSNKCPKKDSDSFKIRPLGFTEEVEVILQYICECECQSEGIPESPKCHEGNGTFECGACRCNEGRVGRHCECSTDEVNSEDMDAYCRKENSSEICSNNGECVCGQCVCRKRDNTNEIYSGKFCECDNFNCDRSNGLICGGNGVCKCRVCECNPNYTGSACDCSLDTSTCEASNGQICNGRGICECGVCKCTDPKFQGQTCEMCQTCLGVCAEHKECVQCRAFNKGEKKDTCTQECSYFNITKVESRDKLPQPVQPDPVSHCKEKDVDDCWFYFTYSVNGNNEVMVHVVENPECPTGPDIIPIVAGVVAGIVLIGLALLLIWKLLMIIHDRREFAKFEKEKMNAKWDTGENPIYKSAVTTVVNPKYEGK
Test: cell-based
Type: cell-based
Design: host or cells: Jurkat (human T lymphoblastic line)
Experimental: Binding inhibition is measured here as a concentration of peptide that inhibits one-half the binding between a standard number of Jurkat cells and a standard amount of CS-1 peptide bound to the surface of a microtiter plate well. Those concentrations are conveniently expressed as IC50 values, smaller numbers indicating a lower concentration required to inhibit 50 percent binding and therefore greater potency. Further specifics of this assay are provided hereinafter.
Jurkat cells (ATCC TIB 152), a human T lymphoblastic line, labeled with ^51 chromium were used to assay in vitro binding inhibition provided by various peptides discussed herein.
The plates were prepared as follows: The 25-mer CS-1 peptide (SEQ ID NO:1) dissolved at 0.5-1 μg/ml in a buffer of 0.1M NaHCO3 at pH 9.5 that also contained 10 μg/ml of bovine serum albumin (BSA) or a conjugate of the CS-1 peptide linked to ovalbumin (CS-1-OVA) dissolved at 1-2.5 μg/ml in the same buffer was used as the substrate. Each well of the microtiter plates was coated with 50 μl of substrate or buffer alone for controls. The wells were permitted to dry out completely and were then rinsed twice with PBS at pH 7.4. Non-specific binding sites of each well were then blocked using 200 μl per well of RPMI/1 percent BSA for two hours at room temperature. Both solid phase-affixed substrates provided similar results.
Jurkat cells (3-5×10^6 cells) were placed into a 15 ml Falcon™ round-bottom tube with a cap. The tube was centrifuged, and the extra medium was then removed.
Two hundred microliters of a ^51 Cr labeling solution were added to the centrifuged cells and maintained in contact with the cells for 90-120 minutes in a warm room. This procedure typically provides about 50,000-100,000 cpm/well with about 80-100 percent cell viability. Longer contact times provide a greater amount of labeling but lower cell viability.
The labeled cells are washed with (i) complete medium, (ii) 1 mM EDTA/PBS and then (iii) RPM1/1 percent BSA free of serum components. The cells are centrifuged after each washing. The cells are finally resuspended in serum-free RPMI/1 percent BSA at a concentration of 1×10^6 viable cells/ml, which provides a concentration that is diluted by one-half in the assay.
Inhibitor peptides are prepared as stock solutions at 20 mg/ml in DMSO in 1.5 ml cryogenic screwcap vials, and were stored at -70° C. Using Flow™ round-bottom or V-bottom microtiter plates, the inhibitor peptides were prepared at twice the assay concentration in RPMI/1 percent BSA at 60 μl well.
Four initial dilutions were typically used.
The ^51 Cr-labeled cells (1×10^6 cells at 60 μl/well) were then admixed with the diluted peptide solutions. The admixtures were maintained at room temperature (about 22° C.) for 30 minutes.
One hundred microliters of each inhibitor peptide/cell admixture were transferred to the substrate-coated wells. This was done in triplicate for each dilution. The resulting plates were incubated for 30 minutes at 37° C. and then washed gently three times with RPMI/1 percent BSA at 200 μl/well. Binding was observed microscopically, particularly after the second wash.
The bound cells were then lysed by the addition of a 0.5 percent solution of sodium dodecylsulfate in water at 100 μ/l well. The resulting solutions were then processed for counting and calculation of IC50 values following usual procedures. Appropriate positive and negative controls were used with each plate so that the results of separate assays could be normalized and compared.
The data of Table 1 are so normalized.

[1] = normalized IC50 relative to standard peptide of SEQ ID NO:3 (=1), about one-tenth or less of the standard is assigned zero

Row | Compound | RELATIVE POTENCY (relative peptide inhibition of VLA-4 binding CS-1) | RELATIVE POTENCY (relative peptide inhibition of VLA-4 binding CS-1) [1]
1 | CC(C)COC(=O)N[C@@H](CC(=O)O)C(=O)N[C@@H](Cc1ccccc1)C(=O)N1CCCCC1 | 0 | –
2 | CC(C)CC(C(=O)NCc1ccccc1)C(=O)N[C@@H](CC(=O)O)C(=O)N[C@@H](Cc1ccccc1)C(=O)N1CCC[C@@H]1C(N)=O (some centres unmarked) | 2 | –
3 | CC(C)C[C@H](NC(=O)Cc1ccc(O)c(O)c1)C(=O)N[C@@H](CC(=O)O)C(=O)N[C@@H](Cc1ccccc1)C(=O)N1CCCCC1 | 81 | –
4 | CC(C)C[C@@H](C(=O)N[C@@H](CC(=O)O)C(=O)N[C@@H](Cc1ccccc1)C(=O)N1CCCCC1)N1C(=O)NC(c2ccccc2)C1=O (some centres unmarked) | 34 | –
5 | CC(C)C[C@H](NC(=O)Cc1ccccc1)C(=O)N[C@@H](CC(=O)O)C(=O)N[C@@H](Cc1ccccc1)C(=O)N1CCCC1CO (some centres unmarked) | – | 184
6 | CC(C)C[C@H](NC(=O)Cc1ccccc1)C(=O)N[C@@H](CC(=O)O)C(=O)N[C@@H](Cc1ccccc1)C(=O)N1CC(O)C(O)C1 (some centres unmarked) | – | 194
7 | CC(C)C[C@H](NC(=O)Cc1ccccc1)C(=O)N[C@@H](CC(=O)O)C(=O)N[C@@H](Cc1ccccc1)C(=O)N1CCC(O)CC1 | – | 603
8 | CCCCCCCCCC(=O)OC1CCN(C(=O)[C@H](Cc2ccccc2)NC(=O)[C@H](CC(=O)O)NC(=O)[C@H](CC(C)C)NC(=O)Cc2ccccc2)CC1 | – | 1
9 | CCCCCCCCCCCCCCCCCC(=O)OC1CCN(C(=O)[C@H](Cc2ccccc2)NC(=O)[C@H](CC(=O)O)NC(=O)[C@H](CC(C)C)NC(=O)Cc2ccccc2)CC1 | – | 1
10 | CC(C)C[C@@H](C(=O)N[C@@H](CC(=O)O)C(=O)N[C@@H](Cc1ccccc1)C(=O)N1CCC[C@@H]1C(N)=O)n1c(=O)[nH]c2ccccc2c1=O | 56 | –
11 | CC(C)C[C@H](NC(=O)c1ccncc1)C(=O)N[C@@H](CC(=O)O)C(=O)N[C@@H](Cc1ccc(O)cc1)C(=O)N1CCCCC1 | 24 | –
12 | CC(C)C[C@H](NC(=O)Cc1ccccc1)C(=O)N[C@@H](CC(=O)O)C(=O)N[C@H]1Cc2ccccc2[C@H]2CCCCN2C1=O | – | 50
13 | CC(C)C[C@H](NC(=O)Cc1ccccc1)C(=O)N[C@@H](CC(=O)O)C(=O)NC1Cc2ccccc2N(CCN2CCOCC2)C1=O (some centres unmarked) | – | 20
14 | CC(C)C[C@H](NC(=O)Cc1ccccc1)C(=O)N[C@@H](CC(=O)O)C(=O)NC1CCCCN(CC(N)=O)C1=O (some centres unmarked) | – | 97
15 | CC(C)C[C@H](NC(=O)Cc1ccccc1)C(=O)N[C@@H](CC(=O)O)C(=O)NC1Cc2ccccc2N(CC(C)C)C1=O (some centres unmarked) | – | 6
16 | CC(C)C[C@H](NC(=O)Cc1ccccc1)C(=O)N[C@@H](CC(=O)O)C(=O)NC(Cc1ccccc1)Cc1ccccc1 | – | 0
17 | CC(C)C[C@H](NC(=O)Cc1ccccc1)C(=O)N[C@@H](CC(=O)O)C(=O)NCCN1CCOCC1 | – | 13
18 | CC(C)C[C@H](NC(=O)Cc1ccccc1)C(=O)N[C@@H](CC(=O)O)C(=O)NC1Cc2ccccc2NC1=O (some centres unmarked) | – | 31
19 | CC(C)C[C@H](NC(=O)Cc1ccccc1)C(=O)N[C@@H](CC(=O)O)C(=O)NC1Cc2ccccc2N(CC(N)=O)C1=O (some centres unmarked) | – | 45

Row | Compound | RELATIVE POTENCY (relative peptide inhibition of VLA-4 binding CS-1) | RELATIVE POTENCY (relative peptide inhibition of VLA-4 binding CS-1) [1]
20 | CC(C)C[C@H](NC(=O)Cc1ccccc1)C(=O)N[C@@H](CC(=O)O)C(=O)NC1CCCCNC1=O (some centres unmarked) | – | 27
21 | CC(C)C[C@H](NC(=O)Cc1ccccc1)C(=O)N[C@@H](CC(=O)O)C(=O)NC1Cc2ccccc2CN1 (some centres unmarked) | – | 3
22 | CC(C)C[C@H](NC(=O)Cc1ccccc1)C(=O)N[C@@H](CC(=O)O)C(=O)N[C@@H]1CCCCNC1=O | – | 17
23 | CC(C)C[C@H](NC(=O)Cc1ccccc1)C(=O)N[C@@H](CC(=O)O)C(=O)NN(Cc1ccccc1)C(=O)C1CCCC1 | – | 1
24 | CC(C)C[C@H](NC(=O)Cc1ccccc1)C(=O)N[C@@H](CC(=O)O)C(=O)NN(Cc1ccccc1)Cc1ccccc1 | – | 0
25 | CC(C)C[C@H](NC(=O)Cc1ccccc1)C(=O)N[C@@H](CC(=O)O)C(=O)NC1CCN(C2CCCCC2)C1=O (some centres unmarked) | – | 7
26 | CC(=O)N[C@H]1[C@H](OCCCCCC(=O)N[C@@H](Cc2ccccc2)C(=O)N[C@@H](CC(C)C)C(=O)N[C@@H](CC(=O)O)C(=O)N[C@@H](CC(C)C)C(=O)N2CCCCC2)O[C@H](CO)[C@@H](O)[C@@H]1O (Ac-[X20]FLDL-Piperidide) | 41 | –
27 | NC(=O)[C@H]1CCCN1C(=O)[C@H](Cc1ccccc1)NC(=O)[C@H](CC(=O)O)NC(=O)[C@H](CC1CCCCC1)NC(=O)c1ccccc1 (Bz-[Cha]DF[dP]-NH2) | – | 17
28 | CC(C)[C@H](NC(=O)[C@H](CC(=O)O)NC(=O)[C@H](CC1CCCCC1)NC(=O)c1ccccc1)C(=O)N1CCC[C@@H]1C(N)=O (Bz-[Cha]DV[dP]-NH2) | – | 11
29 | NC(=O)[C@H]1CCCN1C(=O)[C@H](Cc1ccccc1)NC(=O)[C@H](CC(=O)O)NC(=O)[C@H](CC1CCCCC1)NC(=O)[C@@H](N)Cc1ccccc1 (H-F[Cha]DF[dP]-NH2) | 1 | –
30 | CC[C@H](C)[C@H](N)C(=O)N[C@@H](CC1CCCCC1)C(=O)N[C@@H](CC(=O)O)C(=O)N[C@@H](Cc1ccccc1)C(=O)N1CCC[C@@H]1C(N)=O (H-I[Cha]DF[dP]-NH2) | 1 | –
31 | CC[C@H](C)[C@H](N)C(=O)N[C@@H](CC1CCCCC1)C(=O)N[C@@H](CC(=O)O)C(=O)N[C@H](C(=O)N1CCC[C@@H]1C(N)=O)C(C)C (H-I[Cha]DV[dP]-NH2) | < 1 | –
32 | CC(C)C[C@H](NC(=O)Cc1ccccc1)C(=O)N[C@@H](CC(=O)O)C(=O)N[C@@H](Cc1ccc([N+](=O)[O-])cc1)C(=O)N1CCC[C@@H]1C(N)=O (PhAc-LD[Phe(4-NO2)][dP]-NH2) | – | 40
33 | CC(C)C[C@H](NC(=O)Cc1ccccc1)C(=O)N[C@@H](CC(=O)O)C(=O)N[C@H](C(=O)N1CCC[C@@H]1C(N)=O)c1ccccc1 (PhAc-LD[Phg][dP]-NH2) | – | 61
34 | CC(C)C[C@H](NC(=O)Cc1ccccc1)C(=O)N[C@@H](CC(=O)O)C(=O)N[C@@H](CCc1ccccc1)C(=O)N1CCC[C@@H]1C(N)=O (PhAc-LD[hPhe][dP]-NH2) | – | 94
35 | CCC(C)C(N)C(=O)N[C@@H](CC(C)C)C(=O)N[C@@H](CC(=O)O)C(=O)N[C@H](C(=O)N1CCC[C@@H]1C(N)=O)C(C)C (single isomer, unassigned) [I L D V p free amine amide] | 1 | –
36 | CC(C)C[C@H](NC(=O)C(C)(C)C)C(=O)N[C@@H](CC(=O)O)C(=O)N[C@H](C(=O)N1CCCC1C(N)=O)C(C)C (single isomer, unassigned) [X L D V P pivaloyl amide] | 20 | –
37 | CC(C)C[C@H](NC(=O)[C@H](Cc1ccccc1)NC(=O)CCCCCNC(=O)CCCC[C@@H]1SC[C@@H]2NC(=O)N[C@@H]21)C(=O)N[C@@H](CC(=O)O)C(=O)N[C@@H](Cc1ccccc1)C(=O)N1CCC[C@@H]1C(N)=O [B Z F L D F p, N-(biotinoyl-ε-aminocaproyl)-Phe-Leu-Asp-Phe-D-Pro-NH2] ({Biotin-Ahx}-FLDF[dP]-NH2) | 150 | –
38 | CC[C@H](C)[C@H](N)C(=O)N[C@@H](CC(C)C)C(=O)N[C@@H](CC(=O)O)C(=O)N[C@@H](Cc1ccccc1)C(=O)N1CCC[C@@H]1C(N)=O [I L D F p free amine amide] (H-ILDF[dP]-NH2) | 2 | –
